Source: PMC4790851, “Iminosugars Inhibit Dengue Virus Production via Inhibition of ER Alpha-Glucosidases—Not Glycolipid Processing Enzymes” (PLoS Neglected Tropical Diseases, 2016)
Entries after “also recorded” stand apart in the source; their conditions may differ.

Columns and labels:
dengue infection = tested on: dengue infection; design: method as in PMID 24877997, PMID 12355369; conditions: oral, 400 mg loading dose then 200 mg/dose b.i.d.; cited from earlier work
DENV = tested on: DENV; design: method as in PMID 22020302; conditions: BHK-21 (hamster kidney) cell culture model; cited from earlier work
Glucosyltransferase HL60 = target: T1, Glucosyltransferase HL60 (Homo sapiens, UniProt Q16739); assay: In vitro enzyme inhibition; assay type: biochemical; conditions: glucosyltransferase isolated from HL60 human promyelocytic cell line; read-out: IC50
T1 construct: endogenous in cells; host or cells: HL60
T1 sequence (Q16739 1-394): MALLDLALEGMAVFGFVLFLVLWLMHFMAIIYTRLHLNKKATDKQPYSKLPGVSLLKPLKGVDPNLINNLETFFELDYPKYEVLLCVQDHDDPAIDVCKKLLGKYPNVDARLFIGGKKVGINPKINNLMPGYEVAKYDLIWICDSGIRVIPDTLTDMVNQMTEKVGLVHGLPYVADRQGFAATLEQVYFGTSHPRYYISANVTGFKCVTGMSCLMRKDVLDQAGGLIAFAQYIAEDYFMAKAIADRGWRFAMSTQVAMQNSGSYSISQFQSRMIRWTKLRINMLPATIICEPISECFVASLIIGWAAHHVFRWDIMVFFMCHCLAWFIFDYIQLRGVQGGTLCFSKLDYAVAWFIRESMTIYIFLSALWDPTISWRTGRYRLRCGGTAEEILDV

DENV2 D2S10 = assay: Lethal mouse model of antibody-enhanced DENV infection; assay type: in vivo, AG129 mice; conditions: 33.3 mg/kg/dose t.i.d. p.o.
Method: Virus titers of samples isolated from infected mice were obtained by BHK-21 plaque assays in accordance with previous protocols. BHK-21 cells were seeded in 12-well plates (3 x 10^5 cells/well) in α-MEM medium containing 5% HI-FBS for 3 hours (37°C, 5% CO2). Medium was removed, log10 serial dilutions of virus in α-MEM with 2% HI-FBS were added, and cells were incubated for an additional 2 hours (37°C, 5% CO2). Following incubation, 1.5 ml of α-MEM containing 5% (v/v) HI-FBS and 1% (w/v) low-melting point tissue culture grade agarose (Sigma) was added to each well and allowed to solidify at room temperature before further incubation (37°C, 5% CO2) for 5 days. Plaques were visualised after fixation in 10% formaldehyde (1 hour, room temperature) and removal of the agarose plug by staining briefly (approximately 30 seconds) with 1% (w/v) crystal violet (Sigma) in 20% (v/v) ethanol (EtOH, Sigma). Concentrations were normalised to tissue mass (in grams) or serum volume (in ml) as appropriate.
For animal experiments, multiplex qRT-PCR was conducted on all tissue isolates and plasma as described for in vitro experiments. Rodent glyceraldehyde 3-phosphate dehydrogenase (GAPDH) control (Life Technologies #4308313) containing a VIC reporter dye was attached to a TAMRA (tetramethylrhodamine) quencher, and experimental DENV NS5-specific target was labelled with FAM (6-fluorescein amidite) reporter dyes with a TAMRA quencher. GAPDH primers were used at 10 μM and probe at 20 μM. In the case of DENV qRT-PCR, quantitation using a DENV2-specific primer/probe set directed to NS5 was conducted using all primers and probe at 10 μM final concentration. Thermocycling was conducted as for in vitro experiments. Viral RNA from tissues was quantified by ΔΔCt method, whereas plasma samples were quantified relative to a standard curve as for in vitro experiments. Samples were read in technical duplicate and 95% confidence intervals were determined based on biological and technical variation and graphed using Prism 6 (GraphPad Software, Inc.).
All experimental procedures were pre-approved by the UC Berkeley Animal Care and Use Committee and were performed according to the guidelines of the UC Berkeley Animal Care and Use Committee, the United States Public Health Service, and the USDA Animal Welfare Act. Mice of the 129/Sv background deficient in interferon (IFN)-α/β and -γ receptors (AG129 mice) were infected with DENV under antibody-enhanced conditions as previously described. Mice were primed 24 hours prior to infection with a 5 μg intraperitoneal (i.p.) injection of a pan-flavivirus monoclonal antibody against E protein, 4G2. At t = 0, 10^5 pfu of DENV2 D2S10 was injected intravenously. […]

[1] = serum at 80 h post-infection, AG129 mice, listed as celgosivir

## CCCC(=O)O[C@H]1CN2CC[C@H](O)[C@@H]2[C@@H](O)[C@@H]1O [Celgosivir, 6-O-butanoyl-castanospermine]
Dengue infection
  reduction in viral load or fever burden in patients: failed to demonstrate reduction in viral load or fever burden
DENV
  enhancement of antiviral efficacy over castanospermine: ~ 100 fold
Glucosyltransferase HL60
  IC50: > 1 mM
DENV2 D2S10; 80 h post-infection, qRT-PCR normalized to GAPDH
  viral RNA levels in spleen: enhanced viral RNA levels by approximately two orders of magnitude
DENV2 D2S10; serum at 80 h post-infection, AG129 mice
  infectious virus level in serum (BHK-21 plaque assay): reduced the average viral titer, but the differences were not statistically significant
DENV2 D2S10; [1]
  circulating viral load (viral RNA, qRT-PCR): significantly reduced; also recorded: statistically significant reduction in viral RNA load
  infectious virus level in serum (BHK-21 plaque assay): not statistically significant
